These are literature values, as cited in publication PMC139967 (BMC Biochemistry, 2002).

The subject of the data set is calmodulin.

For KAHKAATKIQASFRGHITRKKLKC [NM], the “effect of high ionic strength on calmodulin binding” value is “reduced by high ionic strength”.
